This is an account of results in patent US8952024B2, “Herbicidal pyrimidone derivatives” (E I du Pont de Nemours and Company, priority 2009, dated 2015).

Series [1] deals with deadnettle (henbit deadnettle, Lamium amplexicaule). The series can be described thus: Test C plant response. In kind it is in vivo. Conditions: Preemergence, scale 0 to 100.
In series [2] the test system is windgrass (Apera spica-venti). The experiment in a line: Test C plant response. In kind it is in vivo. Conditions: Preemergence, scale 0 to 100.
Series [3] has as its system field violet (Viola arvensis). The experiment in a line: Test C plant response. It counts as in vivo. Conditions: Postemergence, scale 0 to 100. The source says: (§1) Seeds of plant species selected from bluegrass (annual bluegrass, Poa annua), blackgrass (Alopecurus myosuroides), canarygrass (Phalaris minor), chickweed (common chickweed, Stellaria media), galium (catchweed bedstraw, Galium aparine), bromegrass (downy bromegrass, Bromus tectorum), field poppy (Papaver rhoeas), field violet (Viola arvensis), green foxtail (Setaria viridis), deadnettle (henbit deadnettle, Lamium amplexicaule), Italian ryegrass (Lolium multiflorum), kochia (Kochia scoparia), lambsquarters (Chenopodium album), oilseed rape (Brassica napus), pigweed (Amaranthus retroflexus), Russian thistle (Salsola iberica), spring barley (Hordeum vulgare), spring wheat (Triticum aestivum), buckwheat (wild buckwheat, Polygonum convolvulus), wild mustard (Sinapis arvensis), wild oat (Avena fatua), wild radish (Raphanus raphanistrum), windgrass (Apera spica-venti), winter barley (Hordeum vulgare), and winter wheat (Triticum aestivum) were planted and treated postemergence with test chemicals formulated in a non-phytotoxic solvent mixture which included a surfactant. Plants ranged in height from 2 to 18 cm (1- to 4-leaf stage).
(§2) Treated plants and controls were maintained in a controlled growth environment for 14 days after which time all test plants were visually evaluated and compared to controls. Plant response ratings, summarized in Table C, are based on a scale of 0 to 100 where 0 is no effect and 100 is complete control. A dash (-) response means no test result.

The subject of series [4] is pigweed (Amaranthus retroflexus). The experiment in a line: Test C plant response. To be noted: Postemergence, scale 0 to 100. In kind it is in vivo.
From the text: as §1, §2

Series [5] has as its system bromegrass (downy bromegrass, Bromus tectorum). The series can be described thus: Test C plant response. It counts as in vivo. Conditions: Postemergence, scale 0 to 100.
From the text: as §1, §2

Series [6] deals with wild radish (Raphanus raphanistrum). The series can be described thus: Test C plant response. To be noted: Postemergence, scale 0 to 100. It counts as in vivo.
From the text: as §1, §2

Series [7] deals with spring barley (Hordeum vulgare). The series can be described thus: Test C plant response. It counts as in vivo. To be noted: Preemergence, scale 0 to 100.
Series [8] concerns Russian thistle (Salsola iberica). The experiment in a line: Test C plant response. It counts as in vivo. Conditions: Preemergence, scale 0 to 100.
Series [9] concerns bromegrass (downy bromegrass, Bromus tectorum). The series can be described thus: Test C plant response. In kind it is in vivo. Conditions: Preemergence, scale 0 to 100.
Series [10] deals with field poppy (Papaver rhoeas). The experiment in a line: Test C plant response. In kind it is in vivo. Conditions: Preemergence, scale 0 to 100.
Series [11] relates to bluegrass (annual bluegrass, Poa annua). The series can be described thus: Test C plant response. In kind it is in vivo. To be noted: Preemergence, scale 0 to 100.
For series [12], the system named is blackgrass (Alopecurus myosuroides). The series can be described thus: Test C plant response. In kind it is in vivo. To be noted: Preemergence, scale 0 to 100.
Series [13] has as its system canarygrass (Phalaris minor). The series can be described thus: Test C plant response. It counts as in vivo. Conditions: Preemergence, scale 0 to 100.
Series [14] concerns Italian ryegrass (Lolium multiflorum). The series can be described thus: Test C plant response. It counts as in vivo. Conditions: Preemergence, scale 0 to 100.
For series [15], the system named is Russian thistle (Salsola kali). The series can be described thus: Test B pre-/postemergence plant response. It counts as in vivo. To be noted: Preemergence; for Russian Thistle plant response rating: 250 g ai/ha, 0 to 100 scale. In outline:
(§3)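 Response scores were assigned visually after 13 to 15 days in a greenhouse, comparing treated pots with controls on a 0–100 scale where 100 denotes complete control. Preemergence treatments went onto freshly seeded loam/sand soil; postemergence treatments onto plants 2 to 18 cm tall.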

For series [16], the system named is deadnettle (henbit deadnettle, Lamium amplexicaule). The series can be described thus: Test B pre-/postemergence plant response. In kind it is in vivo. Conditions: Postemergence. The method, boiled down:
as §3

Where [17] appears, read: 62 g ai/ha, scale 0 to 100, 0 no effect, 100 complete control.
The mark [18] stands for this setting: 125 g ai/ha, scale 0 to 100, 0 no effect, 100 complete control.
Where [19] appears, read: 31 g ai/ha, scale 0 to 100 (0 no effect, 100 complete control).
The mark [20] stands for this setting: 31 g ai/ha, 0 to 100 scale (0 no effect, 100 complete control).
The mark [21] stands for this setting: 125 g ai/ha, scale 0 to 100 (0 no effect, 100 complete control).
[22] abbreviates: 250 g ai/ha, scale 0 to 100 (0 no effect, 100 complete control), 13 to 15 days.

On to `O=C1CCCC(O)=C1C(=O)c1cnc(-c2ccccc2)n(-c2ccccc2)c1=O` [Compound 2, 5-[(2-hydroxy-6-oxo-1-cyclohexen-1-yl)carbonyl]-2,3-diphenyl-4(3H)-pyrimidinone], for which the “Plant response rating: Deadnettle” value in [1] (62 g ai/ha) came to 95; in [1] (125 g ai/ha), 98; in series [1] (16 g ai/ha) it was 0; in [1] (31 g ai/ha), 75. The “Plant response rating: Windgrass” value in series [2] (62 g ai/ha) came out at 25; in series [2] (125 g ai/ha), 25; in series [2] (16 g ai/ha), 0; in [2] (31 g ai/ha), 15. Moreover, the “Plant response rating: Field Violet” value is 0 in [3] (16 g ai/ha), 40 in series [3] (31 g ai/ha), 40 in [3] (62 g ai/ha) and 50 in series [3] (125 g ai/ha). Moreover, the “Plant response rating: Pigweed” value is 35 in [4] (16 g ai/ha), 40 in series [4] (31 g ai/ha), 75 in series [4] (62 g ai/ha) and 90 in series [4] (125 g ai/ha). Further, the “Plant response rating: Bromegrass, Downy” value in [5] (16 g ai/ha) worked out at 10; in series [5] (31 g ai/ha) it was 20; in series [5] (62 g ai/ha), 30; in series [5] (125 g ai/ha), 50; in [9] (62 g ai/ha), 0; in [9] (125 g ai/ha), 0. The “Plant response rating: Bromegrass, Downy” value in series [9] (16 g ai/ha) and in series [9] (31 g ai/ha) was 0 in each case. Moreover, the “Plant response rating: Radish, Wild” value in series [6] (16 g ai/ha) was determined as 65; in series [6] (31 g ai/ha) it was 80; in series [6] (62 g ai/ha), 95; in series [6] (125 g ai/ha) it was 95. Also, the “Plant response rating: Barley, Spring” value in series [7] (62 g ai/ha), in [7] (125 g ai/ha), in series [7] (16 g ai/ha) and in series [7] (31 g ai/ha) was 0 in each case. Also, the “Plant response rating: Russian Thistle” value in series [8] (62 g ai/ha), in series [8] (16 g ai/ha) and in series [8] (31 g ai/ha) was 0 each time. Further, the results for the “Plant response rating: Field Poppy” value in series [10] (62 g ai/ha), in [10] (125 g ai/ha) and in series [10] (31 g ai/ha) were 95, 100 and 75, respectively. The “Plant response rating: Bluegrass” value in [11] (62 g ai/ha), in [11] (125 g ai/ha), in series [11] (16 g ai/ha) and in series [11] (31 g ai/ha) was 0 each time. For the same compound, the “Plant response rating: Blackgrass” value in [12] (62 g ai/ha), in series [12] (125 g ai/ha), in series [12] (16 g ai/ha) and in series [12] (31 g ai/ha) was 0 each time. Besides, the “Plant response rating: Canarygrass” value in [13] (62 g ai/ha) amounted to 0; in series [13] (125 g ai/ha), 10; in [13] (16 g ai/ha) it was 0; in series [13] (31 g ai/ha), 0. Besides, the “Plant response rating: Ryegrass, Italian” value in series [14] (62 g ai/ha), in series [14] (125 g ai/ha), in series [14] (16 g ai/ha) and in series [14] (31 g ai/ha) was 0 in each case.
For orientation: melting point means the temperature, or range, at which the solid turns liquid. `Cc1c(F)cccc1-n1c(-c2ccccc2)ncc(C(=O)C2=C(O)CCCC2=O)c1=O` [Compound 47, 3-(3-fluoro-2-methylphenyl)-5-[(2-hydroxy-6-oxo-1-cyclohexen-1-yl)carbonyl]-2-phenyl-4(3H)-pyrimidinone] registered a melting point of 168 to 169 °C.
With `O=C1CCCC(O)=C1C(=O)c1cnc(-c2cccs2)n(-c2ccccc2)c1=O` [Compound 66], in series [15] (setting [17]), the “Plant response rating, Russian Thistle” value is given as 0.
`CC(C)Cc1ncc(C(=O)C2=C(O)CCCC2=O)c(=O)n1-c1ccccc1` [Compound 68]: the “Plant response rating, Russian Thistle” value in [15] (setting [18]) is listed as 80.
For `O=C1CCCC(O)=C1C(=O)c1cnc(-c2cccc(Br)c2)n(-c2ccccc2)c1=O` [Compound 69], the “Plant response rating, Russian Thistle” value in series [15] (setting [19]), in [15] (setting [17]) and in [15] (setting [18]) was 100 throughout.
On to `CCCc1ncc(C(=O)C2=C(O)CCCC2=O)c(=O)n1CCC` [Compound 72], for which the results for the “Plant response rating, Russian Thistle” value in series [15] (setting [19]), in series [15] (setting [17]) and in series [15] (setting [18]) were 0, 30 and 80, respectively.
`COCCCn1c(-c2ccccc2)ncc(C(=O)C2=C(O)CCCC2=O)c1=O` [Compound 81, 5-[(2-hydroxy-6-oxo-cyclohexen-1-yl)carbonyl]-3-(3-methoxypropyl)-2-phenyl-4(3H)-pyrimidinone] came in with a melting point of 121 to 122 °C. Moreover, in series [15] (setting [19]), the “Plant response rating, Russian Thistle” value worked out at 100. Also, in series [15] (setting [17]), the “Plant response rating, Russian Thistle” value came out at 100. In addition, the “Plant response rating, Russian Thistle” value in series [15] (setting [18]) is 100. Moreover, in [15], the “Russian Thistle plant response rating” value stood at 100.
Consider `O=C1CCCC(O)=C1C(=O)c1cnc(-c2ccsc2)n(C2CCOCC2)c1=O` [Compound 186], for which the “Plant response rating, Deadnettle” value stood at 90 in series [16] (setting [20]), 100 in series [16] (setting [21]) and 100 in series [16] (setting [22]).
For the compound `CCCCn1c(C2CC2)ncc(C(=O)C2=C(O)CCCC2=O)c1=O` [Compound 193], the “Plant response rating, Deadnettle” value in series [16] (setting [20]) came out at 100; in [16] (setting [21]) it was 100; in [16] (setting [22]), 100; in series [16] (62 g ai/ha, scale 0 to 100 (0 no effect, 100 complete control)), 100. For the same compound, the “Plant response rating, Russian Thistle” value in series [15] (setting [19]) was 90; in [15] (setting [17]), 98; in [15] (setting [18]), 100. Also, the “Russian Thistle plant response rating” value in series [15] was 100.
